Test results reported in patent US11066412B2, “Substituted pyrrolo[2,1-a]phthalazines and benzo[g]pyrrolo[2,1-a]phthalazines for the treatment of cancer” (Academia Sinica, priority 2017, dated 2021).
Like-named read-outs stand apart in the source and are kept apart here.

Columns and labels:
[1] = tested on: CD31; test: immunohistochemical staining of tumor xenograft sections, blood vessels; type: in vivo, nude mice; conditions: for blood vessel in tumors (anti-CD31 staining): compared to vehicle control, FIG. 15, panel A; for CD31 marker intensity compared to control: day 9, H526 tumors, FIG. 15, panel B
Description: (§1) Tumor xenograft tissue sections on the slides were deparaffinized in xylene twice for 7 min each time. The slides were then rehydrated in graded ethanol, serially from 100% to 70%, followed by rinsing in dH2O. Antigen retrieval was performed using citrate buffer (0.01M, pH 6.0) with incubation in a cooker for 50 mins followed by ambient temperature cooling for 30 min. and then dH2O rinsing. Later slides were subjected to immunohistochemical (IHC) staining with primary antibodies (anti-rabbit CD31 antibody and anti-mouse γ-H2AX antibody) obtained from Abeam® following the manufacturer's instructions (Novolink Polymer Detection system, Leica Biosystems, Wetzlar, Germany).^11 After IHC processing, the slides were scanned digitally using the Panoramic 250 Flash II whole slide scanner and analyzed by 3DHISTECH Panoramic viewer software (3DHISTECH Ltd., Budapest, Hungary).
The density of blood vessels within the tumors was evaluated by immunofluorescence staining using anti-CD31 (a marker of endothelial cells) (FIG. 15, panel A). […] After IHC, slides were scanned by Panoramic 250 Flash II whole slide scanner. The expression of CD31 in tissue sections were determined from 15 different fields of 3 tumor sections and counts were averaged using 3DHISTECH Panoramic viewer software (3DHISTECH Ltd., Budapest, Hungary). […] However, on day 9, CD31 marker intensity was reduced to 4% in tumors treated with BO-2590L or vatalanib compared to control (FIG. 15, panel B). […] On day 9, CD31 marker intensity in cisplatin-treated tumor was 19% of control, which was less extent than BO-2590L or vatalanib.

[2] = tested on: H82; test: in vitro cytotoxicity to SCLC cells; type: cell-based, human; conditions: Table 3
Description: (§2) After a 72-hr incubation in various concentrations of the newly synthesized compounds, the cytotoxic effects of them to all cell lines were determined by the PrestoBlue®(Invitrogen) assay using a microplate spectrophotometer. Briefly, at the end of treatment, an aliquot of PrestoBlue® solution was added and then cells were incubated at 37° C. for 1-2 hr. The absorbance at 570 and 600 nm was measured with a microplate reader. […] The ICso is defined by the concentration required to inhibit tumor cell growth by 50%. Data represent the mean±STDEV of three to six independent experiments for each compound.

[3] = tested on: H1417; test: in vitro cytotoxicity to SCLC cells; type: cell-based, human; conditions: Table 3
Description: as §2

[4] = tested on: H211; test: in vitro cytotoxicity to SCLC cells; type: cell-based, human; conditions: Table 3
Description: as §2

[5] = tested on: H146; test: in vitro cytotoxicity to SCLC cells; type: cell-based, human; conditions: Table 3
Description: as §2

[6] = tested on: human SCLC H526 xenografts; test: tumor growth in xenograft-bearing nude mice; type: in vivo; conditions: micelle formulation (Kolliphor/TWEEN 80/PEG400/ethanol/D5W); BO-2768 at 20 mg/kg twice daily; FIG. 12, panel A
Description: Athymic nude mice bearing the nu/nu gene were obtained from the National Laboratory Animal Center (Taipei, Taiwan). Male nude mice (6 weeks or older weighing 20-24 g or more) were used for all human tumor xenografts. The tested compounds were intravenously administered through tail vein. Tumor volume was determined by measuring the length x width x height (or width) with calipers. […] For tumor-bearing nude mice during the course of the experiment, the % body weight changes refer to: (the total weight on reading day/the total weight on day treatment started)×100.
In all experiments, the tumor cells were subcutaneously implanted in nude mice, and the BO-2590L was administered via tail vein when the tumor size reaching approximate 100 mm^3. […]
To confirm the therapeutic activity of BO-2590L, comparative experiments carried out by known chemotherapeutic agents, such as vatanalib and cisplatin, were also performed. Briefly, the H526 xenograft-bearing mice were divided into 4 groups which were treated with vehicle, BO-2590L (10 mg/kg, QD×9), vatalanib (100 mg/kg, QD×9), and cisplatin (4 mg/kg, Q2D×3), respectively. Results are illustrated in FIG. 11.
Results are illustrated in FIGS. 12 and 13.

[7] = tested on: colon cancer HCT-116; test: in vitro cytotoxicity, PrestoBlue assay; type: cell-based, human; conditions: Table 2
Description: (§3) All representative compounds of Formulae (I-A) and (I-B) were first evaluated for their in vitro cytotoxicity to human lymphoblastic leukemia cell line (CCRF-CEM) and its vinblastine-resistant sub-cell line (CCRF-CEM/VBL) (see Table 1).
as §2

[8] = tested on: non-small cell lung cancer H460; test: in vitro cytotoxicity, PrestoBlue assay; type: cell-based, human; conditions: Table 2
Description: as §3, §2

[9] = tested on: pancreatic cancer PacaS1; test: in vitro cytotoxicity, PrestoBlue assay; type: cell-based, human; conditions: Table 2
Description: as §3, §2

[10] = tested on: vinblastine-resistant sub-cell line (CCRF-CEM/VBL); test: in vitro cytotoxicity, PrestoBlue assay; type: cell-based, human
Description: as §3, §2

[11] = body weight changes of xenograft-bearing nude mice; type: in vivo; conditions: H526 xenograft mice
Description: Athymic nude mice bearing the nu/nu gene were obtained from the National Laboratory Animal Center (Taipei, Taiwan). Male nude mice (6 weeks or older weighing 20-24 g or more) were used for all human tumor xenografts. The tested compounds were intravenously administered through tail vein. Tumor volume was determined by measuring the length x width x height (or width) with calipers. The vehicle used for the tested compounds was normal saline (0.9% NaCl isotonic solution). For tumor-bearing nude mice during the course of the experiment, the % body weight changes refer to: (the total weight on reading day/the total weight on day treatment started)×100.

[12] = tested on: human lymphoblastic leukemia cell line (CCRF-CEM); test: in vitro cytotoxicity, PrestoBlue assay; type: cell-based; conditions: 72-hr incubation; mean ± STDEV of three to six experiments; read-out: IC50 CCRF-CEM
Description: as §3, §2

[13] = tested on: small cell lung cancer H526; test: in vitro cytotoxicity, PrestoBlue assay; type: cell-based, human; conditions: read-out: IC50 H526
[14] = tested on: γ-H2AX; test: immunohistochemical staining of tumor xenograft sections, DNA damage marker; type: in vivo, nude mice; conditions: for γ-H2AX in tumors: FIG. 16, panel A; for γ-H2AX signals, quantitative analysis: FIG. 16, panel B
Description: as §1, with “3[…]” for “3DHISTECH”, “(3[…]” for “(3DHISTECH”
As BO-2590L is a DNA damaging agent, we thus investigated the effect of BO-2590L on the level of a DNA damage marker, γ-H2AX, via the use of immunohistochemical staining.

[15] = tested on: H526 cells; test: single cell electrophoresis (comet) assay; type: cell-based; conditions: FIG. 2
Text: The data is the average of 3 independent experiments.
To this purpose, cells were encapsulating in a low-melting-point agarose suspension on a microscope slide, then were lysed in neutral or alkaline (pH>13) condition, and electrophoresis of the suspended lysed cells. The term “comet” refers to the pattern of DNA migration through the electrophoresis gel, which often resembles a comet, and the intensity of the comet tail relative to the head reflects the number of DNA breaks.

[16] = tested on: EA.hy926 cells; test: Tube-Formation Assay; type: cell-based; conditions: 24 hr pre-treatment, 48-hr incubation on matrigel; FIG. 4
Description: Angiogenesis is the process of generating new blood vessels derived as extensions from the existing vasculature. Performance of vascular behavior or monitoring tube formation can determine whether the compound is capable of interrupting angiogenesis. In this example, whether the compound of formula (I) interrupted angiogenesis was investigated using Tube-Formation Assay.
Briefly, EA.hy926 cells were treated with various concentrations of BO-2590 for 24 hr. After that, cells (5×10^5 cells/well) were suspended in 100 μl medium containing 1% FCS and subsequently seeded onto 96-well plate pre-coated with matrigel 1 h at 37° C. After a 48-hr incubation, tube-formation ability was examined under a phase microscope.

## N.N.[Cl][Pt][Cl] [Cisplatin, reference compound]
[1]
  blood vessel in tumors (anti-CD31 staining): significantly reduced blood vessel
  CD31 marker intensity compared to control: 19%
[2]
  IC50: 1.75 ± 0.39 µM
[3]
  IC50: 40.8 ± 5.97 µM
[4]
  IC50: 0.78 ± 0.46 µM
[5]
  IC50: 10.2 ± 2.99 µM
[6]
  tumor size: slowly increased in size
[7]
  IC50: 9.17 ± 0.67 µM
[8]
  IC50: 5.11 ± 0.22 µM
[9]
  IC50 Paca SI: 27.04 ± 0.98 µM
[10]; 72-hr incubation, mean ± STDEV of three to six experiments, read-out: IC50 CEM/VBL
  IC50: 8.88 ± 1.86 µM
[10]; number in brackets
  resistance factor (IC50 CEM/VBL vs IC50 of the parent cell line): 0.54 ×
[11]; micelle formulation, FIG. 12, panel B
  deleterious effects on the bodyweight of the test animals: none
[11]; BO-2590L 10 mg/kg for consecutive 9 days, cisplatin 4 mg/Kg, FIG. 11, panel B
  body weight: severe body weight lost
[12]
  IC50: 16.5 ± 0.9 µM
[13]; Table 2
  IC50: 0.73 ± 0.07 µM
[13]; Table 3
  IC50: 1.75 ± 0.71 µM
[14]
  γ-H2AX in tumors: remarkably increased in γ-H2AX
  γ-H2AX signals, quantitative analysis: time-dependently increased in γ-H2AX signals
[15]
  DNA damage (comet tail): inducing DNA breaks in a dose dependent manner

## Clc1ccc(Nc2nnc(Cc3ccncc3)c3ccccc23)cc1 [vatalanib]
[1]
  blood vessel in tumors (anti-CD31 staining): significantly reduced blood vessel
  CD31 marker intensity compared to control: 4%
[16]
  tube formation: suppressed tube formation, but at much higher concentrations
[14]
  γ-H2AX in tumors: much less level
  γ-H2AX signals, quantitative analysis: moderate level of γ-H2AX
